Test results reported in the NIST ThermoML archive (doi:10.1016/j.jct.2017.03.006).

Columns and labels:
[1] = 100 kPa, Liquid, Concentric cylinders viscometry
[2] = xn = mol fraction of the nth substance listed; conditions: Liquid, x1 = 1; for mass density: Vibrating tube method; for viscosity: Concentric cylinders viscometry

CCCCO [butan-1-ol]
[1]
Conditions | viscosity [mPa·s]
323.15 K | 1.406
333.15 K | 1.134

CCCCO [butan-1-ol] + Cc1ccc(C)c(C)c1
[2]
Conditions | mass density [kg/m3] | viscosity [mPa·s]
273.15 K, 100 kPa | 824.6 | –
273.15 K, 1000 kPa | 825.2 | –
273.15 K, 5000 kPa | 827.7 | –
273.15 K, 10000 kPa | 830.8 | –
273.15 K, 20000 kPa | 836.7 | –
273.15 K, 30000 kPa | 842.3 | –
273.15 K, 40000 kPa | 847.6 | –
273.15 K, 50000 kPa | 852.5 | –
273.15 K, 60000 kPa | 857.2 | –
273.15 K, 70000 kPa | 861.7 | –
273.15 K, 80000 kPa | 866 | –
273.15 K, 90000 kPa | 870.1 | –
273.15 K, 100000 kPa | 874 | –
273.15 K, 120000 kPa | 881.5 | –
273.15 K, 140000 kPa | 888.5 | –
293.15 K, 100 kPa | 809.6 | 2.953
293.15 K, 1000 kPa | 810.2 | –
293.15 K, 5000 kPa | 813.1 | –
293.15 K, 10000 kPa | 816.5 | –
293.15 K, 20000 kPa | 822.9 | –
293.15 K, 30000 kPa | 829 | –
293.15 K, 40000 kPa | 834.7 | –
293.15 K, 50000 kPa | 840 | –
293.15 K, 60000 kPa | 845 | –
293.15 K, 70000 kPa | 849.8 | –
293.15 K, 80000 kPa | 854.4 | –
293.15 K, 90000 kPa | 858.7 | –
293.15 K, 100000 kPa | 862.9 | –
293.15 K, 120000 kPa | 870.8 | –
293.15 K, 140000 kPa | 878.2 | –
303.15 K, 100 kPa | – | 2.263
313.15 K, 100 kPa | 794.1 | 1.769
313.15 K, 1000 kPa | 794.8 | –
313.15 K, 5000 kPa | 798 | –
313.15 K, 10000 kPa | 801.8 | –
313.15 K, 20000 kPa | 808.9 | –
313.15 K, 30000 kPa | 815.5 | –
313.15 K, 40000 kPa | 821.6 | –
313.15 K, 50000 kPa | 827.4 | –
313.15 K, 60000 kPa | 832.7 | –
313.15 K, 70000 kPa | 837.8 | –
313.15 K, 80000 kPa | 842.7 | –
313.15 K, 90000 kPa | 847.3 | –
313.15 K, 100000 kPa | 851.7 | –
313.15 K, 120000 kPa | 860 | –
313.15 K, 140000 kPa | 867.8 | –
323.15 K, 100 kPa | – | 1.406
333.15 K, 100 kPa | 778 | 1.134
333.15 K, 1000 kPa | 778.8 | –
333.15 K, 5000 kPa | 782.4 | –
333.15 K, 10000 kPa | 786.5 | –
333.15 K, 20000 kPa | 794.4 | –
333.15 K, 30000 kPa | 801.6 | –
333.15 K, 40000 kPa | 808.2 | –
333.15 K, 50000 kPa | 814.4 | –
333.15 K, 60000 kPa | 820.1 | –
333.15 K, 70000 kPa | 825.6 | –
333.15 K, 80000 kPa | 830.7 | –
333.15 K, 90000 kPa | 835.6 | –
333.15 K, 100000 kPa | 840.3 | –
333.15 K, 120000 kPa | 849 | –
333.15 K, 140000 kPa | 857.1 | –
